According to patent US20220168312A1, “MULTICOMPONENT CRYSTAL FORMULATIONS” (UNIVERSITY OF LIMERICK, priority 2019, published 2022):

Legend:
[1] = Tensile stress test of tablets; assay type: physicochemical
Protocol: Hardness testing was performed immediately after tableting using a Pharma Test hardness tester. Each compaction force was tested in triplicate. Tensile strength was calculated according to the Equation 1 where F is the load required to fracture the tablet, D the table diameter and H the tablet height: Tensile strength=2F/πDH Equation 1: […]

[2] = cited from earlier work
[3] = assay type: physicochemical
Protocol: The product was recovered by filtration and dried in air.
Powder X-ray diffraction (PXRD): X-ray powder diffraction (XRPD) patterns were collected in Bragg-Brentano geometry on a PANalytical Empyrean diffractometer equipped with a sealed tube (Cu Kα12, λ=1.5418 Å) an 1D X'Celerator detector between 4 and 40° 2θ.

[4] = Thermal analysis (TGA); assay type: physicochemical; conditions: 10° C./min, nitrogen
Protocol: Thermal Analysis: Thermogravimetric analysis (TGA) was performed using a TA Instruments TGA-Q50 on at a constant rate of 10° C./min from 25° C. to 350° C. under a flux of nitrogen of 50 ml/min. Differential Scanning Calorimetry (DSC) was carried out using sealed aluminium pans on a TA instruments DSC-Q2000 differential scanning calorimeter. Temperature calibrations were made using indium as the standard. An empty pan, sealed in the same way as the sample, was used as a reference. All the thermograms were run at a heating/cooling rate of 10° C./min under a nitrogen purge at a rate of 50 ml/min.

[5] = assay type: physicochemical; remark: listed apart in the source
Protocol: Stability testing: Accelerated stability testing was conducted by taking 100 mg of powdered sample and placing it into a humidity chamber under 75% relative humidity at 40° C. for 14 days. The samples were analysed before and after testing by PXRD, FT-IR, DSC and TGA.

[6] = assay type: physicochemical; conditions: intrinsic dissolution of compacts, 37° C., relative to pure LAM
Protocol: These compacts were each coated with paraffin wax, leaving one surface exposed and secured to the bottom of the dissolution apparatus with excess paraffin wax. Intrinsic solubility was determined using a 900 ml well filled with 900 ml of degassed, deionised water (or 0.1 M HCl solution) on a Pharma Test USP type II system. The solution had been previously equilibrated at 37° C. and the paddle speed was set to 100 rpm after adding the samples. Aliquots of media were withdrawn at 5, 10, 15, 20 30 and 60 minutes (or 0.25, 0.5, 1, 3, 6, 12 and 24 hours), filtered through 0.45 μm PTFE filters and tested via a UV spectrometer in triplicate.
UV-Vis absorbance measurements were carried on a Cary 60 UV-Vis spectrometer using 1 ml quartz cuvettes.

Compound | tablet hardness / tensile strength ([1]; tablets obtained with a compaction weight lower than 400 kg) | half-life ([2]; in vivo) | oral bioavailability ([2]; orally) | tensile strength compared with LAM ([1]; across a range of compaction forces) | stability as a slurry in water (PXRD) [3] | thermally stable up to (thermogravimetric analysis) [4] | crystallinity after accelerated stability test (PXRD) [5] | product degradation after accelerated stability test (FT-IR and DSC) [5] | intrinsic dissolution, faster than pure LAM [6]
Nc1nnc(-c2cccc(Cl)c2Cl)c(N)n1 [LAM, lamotrigine] | too brittle to enable hardness testing | rather short half-life | 90% |  |  |  |  |  | 
lamotrigine:valproic acid (1:2) ionic cocrystal [LAMVAL] |  |  |  | significantly greater tensile strength | stable as a slurry in water | around 100 °C | remains crystalline | no sign of product degradation | 2 ×
